≈ marks a conversion by molar mass, not a printed value.

Experimental findings from patent publication US8652523B2, “Oral pharmaceutical formulation in the form of a plurality of microcapsules for prolonged release of active principle(s) with slow solubility” (Flamel Technologies, priority 2002, dated 2014) are described below.

Series [1] in a line: Increase in solubility of spironolactone in aqueous solution at pH 6.8, 25° C. It is filed as physicochemical. Conditions: pH 6.8, aqueous buffer, without solubilizing agent.
A short description of series [2]: Method for measuring solubility of AP in aqueous solution containing solubilizing agent Cremophor RH 40 (37° C., 6 hours, filtration, HPLC). Format: physicochemical. Here is the method: The solution is stirred at 37° C. for 6 hours and then filtered through a filter with a 0.2 μm pore diameter. The content of solubilized AP is evaluated by HPLC chromatography or any other suitable analytical technique.
The ability of the solubilizing agent, made of Cremophor® RH 40, to solubilize an active principle, made up of spironolactone, is tested according to the following method for measuring solubility:
The AP is introduced into an aqueous solution containing the solubilizing agent. The solution is stirred at 37° C. for 6 hours and is then filtered through a filter with a 0.2 μm pore diameter. The content of solubilized AP is evaluated by HPLC.

`CC(=O)S[C@@H]1CC2=CC(=O)CC[C@]2(C)[C@H]2CC[C@@]3(C)[C@@H](CC[C@@]34CCC(=O)O4)[C@H]12` [spironolactone]: the solubility in series [1] is roughly 38 µg/mL (≈ 91.2 µM). Also, the “(Spironolactone) dissolved in solution” value in series [2] (Cremophor RH 40 0 % w/w at 37° C.) is less than 0.1 mg/mL; in series [2] (Cremophor RH 40 1 % w/w at 37° C.), 0.1 mg/mL; in series [2] (Cremophor RH 40 2 % w/w at 37° C.), 0.2 mg/mL; in series [2] (Cremophor RH 40 5 % w/w at 37° C.), 0.4 mg/mL; in series [2] (Cremophor RH 40 10 % w/w at 37° C.) it was 0.8 mg/mL; in series [2] (Cremophor RH 40 20 % w/w at 37° C.), 1.4 mg/mL.
